Measured values taken from a melting point compilation (Tetko et al.; mined from patent text by program, amines drawn as free bases though some values may be those of a salt).

First: CC12CCC(C1)C1(C)Oc3ccc(C(=O)/C=C/c4ccc(C(=O)O)cc4)cc3C21C (stereo not drawn)
Second: COc1ccc(/C=C/C(=O)c2c(OC)cc(OC)cc2OC(=O)[C@H](C)NC(=O)OCc2ccccc2)cc1
The melting point of the first is higher: 225 to 227 °C for the first, 163 to 164 °C for the second.

First: CCC1(Cc2nc[nH]c2C)CCc2c(C)c3ccccc3n2C1=O (stereo not drawn)
Second: CC1CN(c2cc3c(cc2F)C(=O)c2nc4ccccc4c(=O)n2-3)CCN1 (stereo not drawn)
The melting point of the first is lower: 202 to 204 °C for the first, 225 to 227 °C for the second.

Going from `CCCc1cc(-c2[nH]c3ccccc3c2C)cc(CCC)c1O` to `CCCc1nc2ccnn2cc1Cc1ccc(-c2ccccc2C#N)cc1`, the melting point rises from 102 °C to 154 °C.

First: CCCCCCCNC(=O)N(C)c1cccc(-c2ccc(C=C(OC)C(=O)O)cc2)c1
Second: CCCCCCCc1ccc(-c2ncc(C#N)cn2)cc1
The melting point of the first is higher: 114 °C for the first, 96.3 °C for the second.

First: CNc1nc(-n2cc(C(=O)O)c(=O)c3cc(F)c(F)c(Cl)c32)c(F)cc1F
Second: COC(=O)c1cn(-c2ccc(F)cc2)c(-c2ccc(Cl)cc2)cc1=O
The melting point of the first is lower: 236 to 242 °C for the first, 250 to 254 °C for the second.

Compared with `CCCCn1c(N)cc(=O)n(CCCC)c1=O`, `CCOC(=O)CNC(=O)N(CC(=O)OCC)Cc1ccccc1` is lower in melting point: 90.1 to 92.4 °C for the first, 64 to 65 °C for the second.

Compared with `CCCCNC(=O)C1(c2ccccc2)CCN(C)CC1`, `CN1CCN(c2c(F)c(NCc3ccccc3)c3nc(CC(N)=O)n(C4CC4)c3c2F)CC1` is higher in melting point: 73 to 76.5 °C for the first, 157 to 159 °C for the second.

Compared with `COc1c(C#N)c(OC)c(OC)c(OC)c1OC`, `CCCCP(=O)(C(=O)c1c(OC)cccc1OC)C(=O)c1c(OC)cccc1OC` is higher in melting point: 64 °C for the first, 151 to 152 °C for the second.

Compared with `COC(=O)C(Oc1cc(OCc2ccsc2)ccc1C#N)c1ccccc1` (racemic), `CCOC(=O)COc1cccc2c1CCc1sc(S(=O)(=O)C(c3ccccc3)c3ccccc3)nc1-2` is higher in melting point: 112 to 114 °C for the first, 184 to 187 °C for the second.

First: COc1ccc(CCl)cc1OCc1nc(-c2ccccc2)oc1C
Second: COc1ccc(C(=O)Nc2ccc3ccc(Cl)nc3n2)cc1OC
The melting point of the first is lower: 129 to 130 °C for the first, 196 °C for the second.

First: CCOC(=O)c1c(-c2ccc(OC)c(OC)c2)c2cc(Cl)ccc2n(C)c1=O
Second: COc1ccc2c(=O)cc(-c3nc4ccccc4[nH]3)oc2c1
The melting point of the first is lower: 104 to 106 °C for the first, 201 to 203 °C for the second.

Compared with `c1ccc(Cc2ccccc2Cc2ccccc2)cc1`, `Cc1cccc(C(O)(c2cccc(C)c2)c2cccc(-c3ccc4ccccc4c3)c2)c1` is lower in melting point: 61 to 67 °C for the first, 58 to 60 °C for the second.

Compared with `COc1ccnc(CCc2nc3cc(I)cnc3[nH]2)c1`, `COc1ccc2c(c1)C(=O)c1ccc(C3=NCCN3)cc1S2(=O)=O` is higher in melting point: 207 to 208 °C for the first, 220 to 224 °C for the second.

First: Cc1ccc(NC2=C(C(=O)Nc3ccccc3)C(=O)OC2)cc1
Second: CC(=O)c1ccc(-n2sc3ccccc3c2=O)cc1
The melting point of the first is lower: 181 to 183 °C for the first, 183 to 185 °C for the second.

Compared with `O=[N+]([O-])c1cccc(/C=C/c2nc(C3CCC3)cs2)c1`, `O=C1c2ccccc2-n2cnc(Br)c2[C@@H]2CCCN12` is higher in melting point: 78 to 80 °C for the first, 225 to 226 °C for the second.

First: COC(C)(C)C(=O)O[C@H]1C[C@H](O)C=C2C=C[C@H](C)[C@H](CC[C@@H]3C[C@@H](O)CC(=O)O3)[C@H]21
Second: CONC(=O)Nc1ccc(-c2sc3c(c2CNC(C)c2ccccc2)c(=O)n(C2CCC(O)CC2)c(=O)n3Cc2c(F)cccc2F)cc1 (stereo not drawn)
The melting point of the first is higher: 150 to 152 °C for the first, 137 to 138 °C for the second.

First: CCOC(=O)COC(c1cccc(-c2nnc(Nc3ccc(Cl)c(Cl)c3)s2)c1)c1cccc(C(F)(F)F)c1 (stereo not drawn)
Second: Fc1ccc(-c2csc(Nc3ccccc3C(F)(F)F)n2)cc1
The melting point of the first is lower: 135 to 136 °C for the first, 184 °C for the second.

First: Nc1c(Cl)cc(Cl)c(CCC(=O)O)c1Cl
Second: CC(C)(C)c1csc(COc2cccc(C(=O)Nc3cc(CCCS(=O)(=O)c4ccc(Cl)cc4)ccc3OCC(N)=O)c2)n1
The melting point of the first is lower: 145 °C for the first, 147 to 148 °C for the second.

First: CCN1CCC(O)(c2cc(F)cc(Cl)c2)C1 (stereo not drawn)
Second: O=[N+]([O-])c1ccc2c(c1Br)OCO2
The melting point of the first is higher: 117 to 118 °C for the first, 87 to 89 °C for the second.
